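Tested at 5 concentrations; 48 h exposure; 96-well plates; endpoints linearly interpolated, else capped at highest concentration. The concentration for full growth arrest is given as TGI.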
How the values were obtained:
Test in all cases: DTP human tumour cell line panel, 48 h
OVCAR-3 ovarian = tested on: OVCAR-3 ovarian
RXF 393 renal = tested on: RXF 393 renal
SF-539 CNS = tested on: SF-539 CNS
SW-620 colon = tested on: SW-620 colon
COLO 205 colon = tested on: COLO 205 colon
SNB-19 CNS = tested on: SNB-19 CNS
SNB-75 CNS = tested on: SNB-75 CNS
MCF7 breast = tested on: MCF7 breast
HCT-15 colon = tested on: HCT-15 colon
CAKI-1 renal = tested on: CAKI-1 renal
HT29 colon = tested on: HT29 colon
U251 CNS = tested on: U251 CNS
T-47D breast = tested on: T-47D breast
UACC-257 melanoma = tested on: UACC-257 melanoma
SK-MEL-2 melanoma = tested on: SK-MEL-2 melanoma
HCT-116 colon = tested on: HCT-116 colon
ACHN renal = tested on: ACHN renal
K-562 leukemia = tested on: K-562 leukemia
BT-549 breast = tested on: BT-549 breast
HS 578T breast = tested on: HS 578T breast

Structure (SMILES) | TGI (OVCAR-3 ovarian) [µM] | TGI (RXF 393 renal) [µM] | TGI (SF-539 CNS) [µM] | TGI (SW-620 colon) [µM] | TGI (COLO 205 colon) [µM] | TGI (SNB-19 CNS) [µM] | TGI (SNB-75 CNS) [µM] | TGI (MCF7 breast) [µM] | TGI (HCT-15 colon) [µM] | TGI (CAKI-1 renal) [µM] | TGI (HT29 colon) [µM] | TGI (U251 CNS) [µM] | TGI (T-47D breast) [µM] | TGI (UACC-257 melanoma) [µM] | TGI (SK-MEL-2 melanoma) [µM] | TGI (HCT-116 colon) [µM] | TGI (ACHN renal) [µM] | TGI (K-562 leukemia) [µM] | TGI (BT-549 breast) [µM] | TGI (HS 578T breast) [µM]
Cc1ccc(C(=O)N/N=C2/C(=O)c3c4ccccc4cc4cccc2c34)cc1 | 66.6 | > 69 | > 92.9 | > 100 | > 100 | > 89.8 | > 81 | 11.6 | > 100 | > 81 | 97.5 | > 67.3 | 83.2 | > 100 | > 100 | 27.3 | 39.3 | > 100 | > 100 | 58.1
CN(C)c1ccc(/C=C(\NC(=O)c2ccccc2)C(=O)NC(Cc2c[nH]c3ccccc23)C(=O)O)cc1 (stereo not given) | > 100 | > 100 | > 100 | > 100 | > 100 | > 100 | 33.1 | > 100 | > 100 | > 100 | > 100 | > 100 | > 100 | > 100 | > 100 | > 100 | > 100 | > 100 | > 100 | > 100
COc1cccc2cc(C(=O)NC34CC5CC(CC(C5)C3)C4)c(=N)oc12 | > 73.2 | > 79.9 | > 56.1 | > 100 | > 100 | > 100 | > 100 | > 100 | > 100 | > 100 | > 100 | > 100 | > 74.4 | > 100 | > 100 | > 100 | > 100 | > 100 | > 100 | > 96.7
C=CC[C@]1(C2=NC(C)(C)CO2)c2ccccc2-c2ccccc2[C@H]1C(C)=O | 9.08 | 15.8 | 25.1 | 34.4 | 15 | 34.7 | 46.2 | 24.8 | 26.4 | > 55 | 17.3 | 21.6 | > 69.5 | 24 | 15.4 | 20.2 | > 45.9 | 29.8 | 37.1 | 25.1
Cc1cn(C2OC(CO)C(O)C2F)c(=O)[nH]c1=O (stereo not given) | > 100 | > 100 | > 100 | > 100 | > 100 | > 100 | > 100 | > 100 | > 100 | > 100 | > 100 | > 100 | > 100 | > 100 | > 100 | > 100 | > 100 | > 100 | > 100 | > 100
O=C(Nc1ccc2cc3ccccc3cc2c1)c1cc2c(cc1Cl)Sc1nccn1S2(=O)=O | > 100 | > 100 | 33.8 | > 100 | > 100 | > 100 | 81.2 | > 100 | > 100 | > 100 | > 100 | > 100 | > 100 | > 100 | > 100 | > 100 | > 100 | > 100 | > 100 | > 100
O=P1(Cc2ccccc2)c2ccccc2-c2ccccc21 | > 55.4 | 28.9 | 39.5 | 35 | 17 | > 37.8 | > 50.7 | > 39.3 | > 100 | 50.4 | 27.1 | 70.5 | 6 | 16 | 7.49 | 50.9 | 52.1 | > 100 | 21.3 | > 72
COC(=O)CNC(=O)CCC(C)[C@H]1CCC2C3C(C[C@H](OC(C)=O)[C@@]21C)[C@@]1(C)CCC2(C[C@H]1C[C@H]3OC(C)=O)OOC1(CCCCC1)OO2 (stereo not given in full) | 3.77 | 4.23 | 3.75 | 5.46 | 3.89 | 17.8 | 5.3 | 13.9 | 8.65 | 3.78 | 7.44 | 3.41 | 5.03 | 20.1 | 6.49 | 6.25 | 3.85 | 9.51 | 3.9 | 6.7
C[n+]1cn(-c2nc3ccccc3nc2[N-]S(=O)(=O)c2ccccc2)c2ccccc21 | > 100 | > 100 | > 100 | > 100 | > 100 | > 100 | > 100 | > 100 | > 100 | > 100 | > 100 | > 100 | > 100 | > 100 | > 100 | > 100 | > 100 | > 100 | > 100 | > 100
COc1ccc2c(c1OC)C(=O)O[C@@H]2[C@H]1c2c(cc3c(c2OC)OCO3)CCN1C | 49.9 | > 100 | > 100 | > 100 | > 100 | > 100 | 34 | > 100 | > 100 | > 100 | > 100 | > 100 | > 100 | > 100 | > 100 | > 100 | > 100 | > 100 | > 100 | 67.4
O=C1NC(=Nc2ccccc2Cl)N/C1=C\c1ccc(Cl)cc1Cl | > 100 | 40.1 | > 100 | > 100 | > 100 | > 100 | 93 | > 100 | > 100 | > 100 | > 100 | > 100 | > 100 | > 100 | 58.4 | > 100 | > 100 | > 100 | > 100 | > 100
N#Cc1c(-c2ccccc2)cc(Nc2ccc(Cl)cc2)n2c1nc1ccccc12 | 11 | > 100 | > 49.5 | > 100 | 2.8 | > 100 | > 31.1 | > 76.3 | > 88 | > 30.7 | 11.4 | 97.5 | > 43 | > 28.8 | > 83.6 | > 31.7 | > 100 | 8.21 | > 100 | 20.2
CN(C)N=Nc1ccc2[nH]c(=O)[nH]c2c1 | > 100 | > 100 | > 100 | > 100 | > 100 | > 100 | > 100 | > 100 | > 100 | > 100 | > 100 | > 100 | > 100 | > 100 | > 100 | > 100 | > 100 | > 100 | > 100 | > 100
COc1ccc(/C=C/C(=O)Oc2ccccc2OC)cc1 | > 100 | 99.8 | > 100 | > 100 | 21.2 | > 100 | > 74.1 | > 100 | 37 | > 91.1 | > 59 | > 100 | > 92.2 | > 100 | > 95.3 | 9.55 | > 59.4 | > 100 | > 100 | > 89.6
O=[N+]([O-])C(C(Cl)=C(Cl)Cl)=C(n1cncn1)n1cncn1 | 38.4 | 43.4 | 41.2 | 43.1 | 26.7 | > 100 | > 65.3 | > 100 | 36.7 | 11.4 | 39.4 | > 87.1 | 51 | > 65.7 | > 100 | 31.9 | 37.5 | > 100 | 36 | > 64.1
COc1cc(OC)c(C2(c3c(OC(C)C)c(=O)c3=O)SCCCS2)cc1OC | > 100 | > 100 | > 100 | > 100 | > 100 | > 100 | > 100 | > 100 | > 100 | > 100 | > 100 | > 100 | > 100 | > 100 | > 100 | > 100 | > 100 | > 100 | > 100 | > 100
N#Cc1c(-c2ccc([N+](=O)[O-])cc2)cc(-c2ccc(Nc3ccnc4cc(Cl)ccc34)cc2)nc1N | 15.8 | 34.9 | 55.4 | > 100 | > 66 | 47.4 | 34.6 | 4.73 | 18.6 | 40.4 | 8.86 | 2.82 | 11.1 | 62.3 | 43.5 | 14.7 | > 72.6 | > 33.1 | > 100 | 29.9
Nc1c2cc3ccc2nc2ccc(cc12)OCCOCCOCCOCCOCCOCCO3 | > 10 | > 10 | > 10 | > 10 | > 10 | > 10 | > 10 | > 10 | > 10 | > 10 | > 10 | > 10 | > 10 | > 10 | > 10 | > 10 | > 10 | > 10 | > 10 | > 10
